Where only a bound is given, the exact number is not on record here.

The target of one test is T1, CDK2/CycE (Homo sapiens, UniProt P24941).
T1 construct: purchased ProQinase GmbH (Freiburg, Germany); host or cells: insect cells (Sf9)
The test is described as follows: CDK2/CycE kinase assay (TR-FRET, 2 mM ATP). It counts as biochemical. Conditions: 2 mM ATP (high ATP); median; read-out: CDK2/CyclinE, 2 mM ATP (high ATP), IC50 (median). An outline of the steps: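 GST-tagged human CDK2 and CycE from Sf9 cells, about 10 ng/ml, pre-incubated 15 min at 22 °C with compound in Tris/HCl pH 8.0 buffer. Reaction with 2 mM ATP and 0.75 µM biotinylated peptide for 25 min at 22 °C. Phospho-RB antibody TR-FRET (665/620 nm ratio) read after 1 h; data normalised to no-inhibitor and no-enzyme controls.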
For orientation: TR-FRET usually uses a lanthanide donor and a delayed reading to cut background.

Test [1] has as its system BRCA1 mRNA expression in MDA-MB-231 cells. The test is described as follows: qRT-PCR assay: BRCA1 mRNA expression in MDA-MB-231. It counts as cell-based, human. The note with it: Homo sapiens, MDA-MB-231, Inhibition of BRCA1 mRNA expression in MDA-MB-231 cells; median; read-out: RTqPCR-MDA-MB-231, IC50, BRCA1 (median). The procedure, abridged:
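MDA-MB-231 cells, 200,000/well, treated 24 h after plating with continuous 24 h compound exposure. RNA extracted, 600 ng reverse-transcribed, BRCA1 measured by RT-qPCR normalized to GAPDH.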

For test [2], the target named is T2, CYCLIN K (nuclear staining in CAL-120 cells) (Homo sapiens, UniProt O75909).
T2 construct: endogenous in cells; host or cells: CAL-120 human breast cancer cells (DSMZ ACC 459)
T2 sequence (O75909 whole entry): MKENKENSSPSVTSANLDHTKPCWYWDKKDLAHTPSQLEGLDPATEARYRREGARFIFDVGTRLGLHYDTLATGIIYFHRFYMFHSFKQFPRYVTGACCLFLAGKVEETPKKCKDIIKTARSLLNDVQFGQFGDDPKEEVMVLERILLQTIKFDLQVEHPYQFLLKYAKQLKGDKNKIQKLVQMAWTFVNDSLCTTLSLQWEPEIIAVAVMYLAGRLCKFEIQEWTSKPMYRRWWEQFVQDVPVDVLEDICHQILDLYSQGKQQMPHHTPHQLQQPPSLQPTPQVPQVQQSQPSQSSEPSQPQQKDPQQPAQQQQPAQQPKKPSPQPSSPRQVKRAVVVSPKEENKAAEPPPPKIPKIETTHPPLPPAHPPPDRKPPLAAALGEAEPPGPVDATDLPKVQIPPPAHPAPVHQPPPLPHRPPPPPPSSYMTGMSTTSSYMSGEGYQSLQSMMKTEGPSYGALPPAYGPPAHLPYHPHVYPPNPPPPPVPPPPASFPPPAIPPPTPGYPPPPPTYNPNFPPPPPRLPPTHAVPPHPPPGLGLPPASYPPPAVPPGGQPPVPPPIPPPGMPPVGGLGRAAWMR
T2 sequence (Q9NYV4 whole entry partner): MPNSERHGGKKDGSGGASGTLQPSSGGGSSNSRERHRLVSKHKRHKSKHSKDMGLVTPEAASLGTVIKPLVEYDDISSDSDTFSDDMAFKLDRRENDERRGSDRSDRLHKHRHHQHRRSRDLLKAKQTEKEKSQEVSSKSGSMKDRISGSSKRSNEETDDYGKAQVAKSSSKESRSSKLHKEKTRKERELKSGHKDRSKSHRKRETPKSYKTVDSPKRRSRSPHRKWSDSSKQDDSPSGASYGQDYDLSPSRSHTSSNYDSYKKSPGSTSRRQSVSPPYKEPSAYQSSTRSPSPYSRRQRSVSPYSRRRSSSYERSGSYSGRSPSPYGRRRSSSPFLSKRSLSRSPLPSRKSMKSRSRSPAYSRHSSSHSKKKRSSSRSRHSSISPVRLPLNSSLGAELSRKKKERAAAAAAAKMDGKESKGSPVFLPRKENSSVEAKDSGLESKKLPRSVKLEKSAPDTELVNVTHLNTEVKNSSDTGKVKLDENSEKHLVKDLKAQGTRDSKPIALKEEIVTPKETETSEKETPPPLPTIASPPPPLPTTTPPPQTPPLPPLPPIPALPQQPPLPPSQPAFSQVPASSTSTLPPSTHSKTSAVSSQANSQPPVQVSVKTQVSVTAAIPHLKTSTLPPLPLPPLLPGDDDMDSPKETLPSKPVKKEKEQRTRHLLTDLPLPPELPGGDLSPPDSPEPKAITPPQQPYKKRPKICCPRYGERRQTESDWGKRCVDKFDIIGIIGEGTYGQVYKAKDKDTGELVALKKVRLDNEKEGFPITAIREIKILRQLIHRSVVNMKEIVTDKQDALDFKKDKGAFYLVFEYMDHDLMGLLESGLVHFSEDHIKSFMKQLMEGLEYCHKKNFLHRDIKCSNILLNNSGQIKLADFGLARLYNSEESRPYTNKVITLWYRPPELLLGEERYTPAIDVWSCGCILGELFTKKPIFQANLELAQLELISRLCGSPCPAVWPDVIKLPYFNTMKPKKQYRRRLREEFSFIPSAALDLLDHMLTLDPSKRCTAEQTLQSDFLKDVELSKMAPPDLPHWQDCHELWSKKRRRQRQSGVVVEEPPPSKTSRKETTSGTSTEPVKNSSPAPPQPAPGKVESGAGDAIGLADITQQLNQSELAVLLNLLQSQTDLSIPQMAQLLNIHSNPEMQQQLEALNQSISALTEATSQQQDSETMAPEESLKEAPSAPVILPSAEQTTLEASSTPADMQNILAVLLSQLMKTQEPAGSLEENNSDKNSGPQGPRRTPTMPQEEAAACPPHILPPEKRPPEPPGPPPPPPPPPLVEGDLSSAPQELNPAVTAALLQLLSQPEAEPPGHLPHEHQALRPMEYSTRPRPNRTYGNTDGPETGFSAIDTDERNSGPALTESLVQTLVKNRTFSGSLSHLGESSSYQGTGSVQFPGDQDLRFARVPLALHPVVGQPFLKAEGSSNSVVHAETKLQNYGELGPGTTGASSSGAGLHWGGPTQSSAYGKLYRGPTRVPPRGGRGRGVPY
Briefly: CYCLIN K nuclear protein level: immunofluorescence high content analysis (CAL-120). It counts as cell-based. Conditions: 24 h, 50% reduction of nuclear CCNK staining intensity, median, read-out: CYCLIN K degradation IF, DC50-[mol/l] (median). The procedure, abridged:
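CAL-120 breast cancer cells treated in dose-response for 24 h at 37 °C, PFA-fixed and immunostained for cyclin K with Hoechst counterstain. Confocal imaging quantified nuclear intensity; DC50 is the concentration giving 50% reduction of nuclear CCNK staining, normalized to DMSO and control.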

With `Brc1cnn2c(NCc3nc4ccccc4[nH]3)nc(N3CCCC3)nc12` [Example 47, N-[(1H-benzimidazol-2-yl)methyl]-8-bromo-2-(pyrrolidin-1-yl)pyrazolo[1,5-a][1,3,5]triazin-4-amine], the figures for the IC50 (on CDK2/CycE; in test [1]) were 4660 nM and 23.2 nM, respectively. Moreover, the DC50 in test [2] is 3.98 nM.

Take `O=C(O)C(F)(F)F.c1ccc2[nH]c(CNc3nc(N4CCOCC4)nc4c(-c5cncs5)cnn34)nc2c1` [Example 441, trifluoroacetic acid-N-[(1H-benzimidazol-2-yl)methyl]-2-(morpholin-4-yl)-8-(1,3-thiazol-5-yl)pyrazolo[1,5-a][1,3,5]triazin-4-amine (1/1)]: the IC50 is over 20000 nM at CDK2/CycE and 3.39 nM in test [1]. Moreover, the DC50 in test [2] is 2.25 nM.

For the compound `Fc1ccc2[nH]c(CNc3nc(N4CCOCC4)nc4c(-c5ccnnc5)cnn34)nc2c1F` [Example 417, N-[(4,5-difluoro-1H-benzimidazol-2-yl)methyl]-2-(morpholin-4-yl)-8-(pyridazin-4-yl)pyrazolo[1,5-a][1,3,5]triazin-4-amine], the IC50 is over 20000 nM at CDK2/CycE and 14.6 nM in test [1]. Besides, in test [2], the DC50 is 1.25 nM.

Take `CCc1cnn2c(NCc3nc4ccccc4[nH]3)nc(N3CCN(C)CC3)nc12` [Example 434, N-[(1H-benzimidazol-2-yl)methyl]-8-ethyl-2-(4-methylpiperazin-1-yl)pyrazolo[1,5-a][1,3,5] triazin-4-amine]: the IC50 at CDK2/CycE is 6370 nM; in test [1] it was 10.5 nM. Besides, the DC50 in test [2] was found to be 2.06 nM.

As for `OC[C@@H]1CCCCN1c1nc(NCc2nc3ccccc3[nH]2)n2ncc(Br)c2n1` [Example 59, [(2S)-1-(4-{[(1H-benzimidazol-2-yl)methyl]amino}-8-bromopyrazolo[1,5-a][1,3,5]triazin-2-yl)piperidin-2-yl]methanol], the IC50 on CDK2/CycE is 1050 nM; in test [1] it was 30.5 nM. In addition, in test [2], the DC50 was 2.85 nM.

On to `Fc1cccc2[nH]c(CNc3nc(N4CCN5CCC4CC5)nc4c(C(F)(F)F)cnn34)nc12` [Example 410, 2-(1,4-diazabicyclo[3.2.2]nonan-4-yl)-N-[(4-fluoro-1H-benzimidazol-2-yl)methyl]-8-(trifluoromethyl)pyrazolo[1,5-a][1,3,5]triazin-4-amine], for which the IC50 at CDK2/CycE was found to be 10000 nM; in test [1], 3.42 nM. Moreover, the DC50 in test [2] came to 0.453 nM.

Consider `N#Cc1cccc(-c2nnc(CNc3nc(N4CCOCC4)nc4c(Br)cnn34)[nH]2)c1` [Example 55, 3-[5-({[8-bromo-2-(morpholin-4-yl)pyrazolo[1,5-a][1,3,5]triazin-4-yl]amino}methyl)-4H-1,2,4-triazol-3-yl]benzonitrile], for which the figures for the IC50 (on CDK2/CycE; in test [1]) were 1070 nM and 4.76 nM, respectively. The DC50 in test [2] amounted to 0.843 nM.

These data come from patent US20230117034A1, “PYRAZOLOTRIAZINES” (Bayer Aktiengesellschaft, priority 2019, published 2023).
